In patent US9187472B2 (AbbVie Inc., priority 2012, dated 2015) one finds IC50 data, which are given here for 20 molecules.

In general, IC50 refers to the point on the concentration scale where inhibition reaches its midpoint.

Experiment [1] deals with NAMPT (human, recombinant, C-terminally His-tagged) (Homo sapiens, UniProt P43490). Briefly: Time-Resolved Fluorescence Resonance Energy Transfer (TR-FRET) Binding Assay of NAMPT. Particulars: without substrates; 6.8 nM NAMPT, 200 nM probe, 3 hours equilibration. The method, boiled down:
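11-pt half-log compound series; final 6.8 nM NAMPT, 200 nM OG488 nicotinamide-competitive probe, 1 nM Tb-anti-His Ab, 2% DMSO, HEPES pH 7.5/NaCl/MgCl2/DTT/glycerol buffer. 3 h RT equilibration. Em520/Em495 ratio (Ex 337 nm), control-normalized, 4-parameter fit → IC50.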
(Time-resolved FRET reads energy transfer from a long-lived donor to a nearby acceptor.)

A further experiment addresses NAMPT (Homo sapiens, UniProt P43490). The experiment is described as follows: TR-FRET Binding Assay of NAMPT with PRPP. The following applies: with 200 μM PRPP and 2.5 mM ATP; 2 nM NAMPT, 2 nM probe, 16 hours equilibration. The essentials:
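TR-FRET probe-displacement binding with 2 nM NAMPT, 2 nM probe and 1 nM Tb-anti-His antibody, run in the presence of 200 μM PRPP and 2.5 mM ATP at 2% DMSO. Equilibrated 16 hours before reading so test compounds could undergo enzymatic modification.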

A further experiment has as its system PC3 cells. Briefly: NAMPT Cell Proliferation Assay. In kind it is cell-based. The following applies: Homo sapiens, PC-3, 120 h, 5 days incubation, cell viability by Cell Titer Glo. The essentials: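 Seed PC3 at 500 cells/well (RPMI, 10% HI-FBS), attach overnight; add compound, 10-fold series 10 μM → 1×10^−5 μM; incubate 5 d, 37° C/5% CO2; luminescent viability readout; fit % inhibition sigmoidally for IC50.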
A general note: In ATP-based viability assays light output follows the ATP content of the culture.

Sequence of NAMPT (human, recombinant, C-terminally His-tagged) (P43490 whole entry): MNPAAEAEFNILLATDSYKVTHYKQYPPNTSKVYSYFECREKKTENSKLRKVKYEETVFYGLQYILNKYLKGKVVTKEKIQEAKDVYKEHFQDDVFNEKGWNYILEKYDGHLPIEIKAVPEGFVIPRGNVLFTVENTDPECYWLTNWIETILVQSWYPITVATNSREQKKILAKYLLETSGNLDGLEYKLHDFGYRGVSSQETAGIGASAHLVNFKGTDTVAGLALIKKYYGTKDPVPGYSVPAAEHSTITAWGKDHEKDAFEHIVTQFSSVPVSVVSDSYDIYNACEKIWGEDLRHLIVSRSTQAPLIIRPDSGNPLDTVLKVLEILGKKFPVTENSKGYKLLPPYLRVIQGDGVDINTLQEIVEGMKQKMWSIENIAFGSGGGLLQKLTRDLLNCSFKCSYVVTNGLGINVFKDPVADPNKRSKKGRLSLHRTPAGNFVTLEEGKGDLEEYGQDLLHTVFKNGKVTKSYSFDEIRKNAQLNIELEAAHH
Sequence of NAMPT (P43490 whole entry): as above

`O=C(NCc1ccn2ccnc2c1)c1ccc(C2CCN(C(=O)CC3CC3)C2)s1` (stereo not drawn) [Example 756, 5-[1-(cyclopropylacetyl)pyrrolidin-3-yl]-N-(imidazo[1,2-a]pyridin-7-ylmethyl)thiophene-2-carboxamide]: the IC50 in experiment [1] was 123 nM; on NAMPT, 0.609 nM; with PC3 cells, 18.9 nM.
`CC[C@H](C)C(=O)N1CCC(c2ccc(NC(=O)NCc3ccn4ccnc4c3)cc2)CC1` [Example 710, 1-(imidazo[1,2-a]pyridin-7-ylmethyl)-3-(4-{1-[(2S)-2-methylbutanoyl]piperidin-4-yl}phenyl)urea]: the IC50 in experiment [1] is 49.1 nM; at NAMPT, 1.25 nM; in the experiment with PC3 cells, 2.76 nM.
Regarding `O=C(NCc1ccn2ccnc2c1)Nc1ccc(OC2CCN(C(=O)c3ccc(F)c(F)c3)CC2)cc1` [Example 729, 1-(4-{[1-(3,4-difluorobenzoyl)piperidin-4-yl]oxy}phenyl)-3-(imidazo[1,2-a]pyridin-7-ylmethyl)urea], the IC50 in experiment [1] was 428 nM; at NAMPT, 0.765 nM; in the experiment with PC3 cells it was 45.9 nM.
As to `O=C(NCc1ccn2ccnc2c1)c1ccc(C2CN(C(=O)c3ccco3)C2)cc1` [Example 639, 4-[1-(furan-2-ylcarbonyl)azetidin-3-yl]-N-(imidazo[1,2-a]pyridin-7-ylmethyl)benzamide], the IC50 in experiment [1] is 215 nM; on NAMPT, 0.713 nM; with PC3 cells, 58.1 nM.
`Cn1cccc1CCC(=O)N(C[C@H]1CCCO1)c1ncc(C(=O)NCc2ccn3ccnc3c2)s1` [Example 203, N-(imidazo[1,2-a]pyridin-7-ylmethyl)-2-{[3-(1-methyl-1H-pyrrol-2-yl)propanoyl][(2R)-tetrahydrofuran-2-ylmethyl]amino}-1,3-thiazole-5-carboxamide]: the IC50 in experiment [1] was 13.7 nM; on NAMPT it was 0.21 nM; in the experiment on PC3 cells it was 2.39 nM.
Consider `O=C(NCCCCC1CCN(C(=O)C2CCCC2)CC1)Nc1ccc2nccn2c1` [Example 68, 1-{4-[1-(cyclopentylcarbonyl)piperidin-4-yl]butyl}-3-imidazo[1,2-a]pyridin-6-ylurea], for which the values for the half-inhibitory concentration (IC50) (in experiment [1]; on NAMPT; with PC3 cells) were 386 nM, 0.476 nM and 53.8 nM, respectively.
In the case of `CC(C)OCC(=O)Nc1ccc(NC(=O)NCc2ccc3nccn3c2)cc1` [Example 276, N-(4-{[(imidazo[1,2-a]pyridin-6-ylmethyl)carbamoyl]amino}phenyl)-2-(propan-2-yloxy)acetamide], the IC50 in experiment [1] amounted to 107 nM; at NAMPT, 0.468 nM; with PC3 cells, 38.1 nM.
Regarding `O=C(NCCCCC1CCN(C(=O)c2ccccc2)CC1)Nc1ccc2nccn2c1` [Example 107, 1-[4-(1-benzoylpiperidin-4-yl)butyl]-3-imidazo[1,2-a]pyridin-6-ylurea], the figures for the half-maximal inhibitory concentration (IC50) (in experiment [1]; at NAMPT; in the experiment on PC3 cells) were 45.1 nM, 0.492 nM and 10.8 nM, respectively.
In the same order, the values of `O=C(NCc1ccc2nccn2c1)c1ccc(OC2CCN(C(=O)C3CCOCC3)CC2)cc1` [Example 162, N-(imidazo[1,2-a]pyridin-6-ylmethyl)-4-{[1-(tetrahydro-2H-pyran-4-ylcarbonyl)piperidin-4-yl]oxy}benzamide] are 2570 nM, 2.09 nM and 43.6 nM.
Take `O=C(CCC1CCCC1)Nc1ccc(NC(=O)NCc2ccn3ccnc3c2)cc1` [Example 281, 3-cyclopentyl-N-(4-{[(imidazo[1,2-a]pyridin-7-ylmethyl)carbamoyl]amino}phenyl)propanamide]: the half-maximal inhibitory concentration (IC50) in experiment [1] was determined as 5.5 nM; on NAMPT, 0.214 nM; with PC3 cells it was 24.8 nM.
Turning to `O=C(NCc1ccn2ccnc2c1)Nc1ccc(C2CCN(C(=O)C3CCS(=O)(=O)CC3)CC2)cc1` [Example 243, 1-(4-{1-[(1,1-dioxidotetrahydro-2H-thiopyran-4-yl)carbonyl]piperidin-4-yl}phenyl)-3-(imidazo[1,2-a]pyridin-7-ylmethyl)urea], the figures for the IC50 (in experiment [1]; at NAMPT; in the experiment with PC3 cells) were 169 nM, 0.169 nM and 28 nM, respectively.
In the same order, the values of `O=C(NCc1ccn2ccnc2c1)c1ccc(C2CCN(C(=O)c3cc(F)cc(F)c3)C2)cc1` (stereo not drawn) [Example 599, 4-[1-(3,5-difluorobenzoyl)pyrrolidin-3-yl]-N-(imidazo[1,2-a]pyridin-7-ylmethyl)benzamide] are 527 nM, 0.786 nM and 52.3 nM.
In the case of `CCS(=O)(=O)N1CCC(c2ccc(C(=O)NCc3ccn4ccnc4c3)cc2)C1` (stereo not drawn) [Example 625, 4-[1-(ethylsulfonyl)pyrrolidin-3-yl]-N-(imidazo[1,2-a]pyridin-7-ylmethyl)benzamide], the IC50 in experiment [1] worked out at 795 nM; on NAMPT, 0.76 nM; with PC3 cells, 226 nM.
Consider `CC(C)(C)CC(=O)N1CCC(c2ccc(C(=O)NCc3ccn4ccnc4c3)cc2)C1` (stereo not drawn) [Example 602, 4-[1-(3,3-dimethylbutanoyl)pyrrolidin-3-yl]-N-(imidazo[1,2-a]pyridin-7-ylmethyl)benzamide], for which the IC50 in experiment [1] is 786 nM; on NAMPT, 0.887 nM; with PC3 cells it was 48.6 nM.
In the same order, the values of `CC(C)(O)C(=O)N1CCC(c2ccc(C(=O)NCc3ccn4ccnc4c3)cc2)C1` (stereo not drawn) [Example 372, 4-[1-(2-hydroxy-2-methylpropanoyl)pyrrolidin-3-yl]-N-(imidazo[1,2-a]pyridin-7-ylmethyl)benzamide] are 2440 nM, 0.46 nM and 868 nM.
In the case of `CC1(C(=O)N2CCC(c3ccc(C(=O)NCc4cn5ccnc5cn4)cc3)CC2)CC1` [Example 814, N-(imidazo[1,2-a]pyrazin-6-ylmethyl)-4-{1-[(1-methylcyclopropyl)carbonyl]piperidin-4-yl}benzamide], the IC50 in experiment [1] was found to be 68.7 nM; on NAMPT it was 1.63 nM; with PC3 cells, 4.5 nM.
Take `CC(C)OC[C@@H]1CN(c2ncc(C(=O)NCc3ccn4ccnc4c3)s2)C(=O)O1` [Example 255, N-(imidazo[1,2-a]pyridin-7-ylmethyl)-2-{(5S)-2-oxo-5-[(propan-2-yloxy)methyl]-1,3-oxazolidin-3-yl}-1,3-thiazole-5-carboxamide]: the half-inhibitory concentration (IC50) in experiment [1] was 8190 nM; on NAMPT, 2.22 nM; in the experiment on PC3 cells it was 4290 nM.
For `O=C(NCc1ccn2ccnc2c1)Nc1ccc(-c2cnn(CC3CCCO3)c2)cc1` (stereo not drawn) [Example 674, 1-(imidazo[1,2-a]pyridin-7-ylmethyl)-3-{4-[1-(tetrahydrofuran-2-ylmethyl)-1H-pyrazol-4-yl]phenyl}urea], the concentration for half-maximal inhibition (IC50) turned out to be 297 nM in experiment [1], 0.535 nM on NAMPT and 32.4 nM in the experiment with PC3 cells.
With `CC(C)(O)C(=O)N1CCC(Oc2ccc(C(=O)NCc3ccn4ccnc4c3)cc2)CC1` [Example 417, 4-{[1-(2-hydroxy-2-methylpropanoyl)piperidin-4-yl]oxy}-N-(imidazo[1,2-a]pyridin-7-ylmethyl)benzamide], the IC50 in experiment [1] was 6840 nM; at NAMPT, 0.264 nM; in the experiment with PC3 cells, 867 nM.
In the same order, the values of `N#Cc1cccc(C(=O)N2CCC(c3ccc(C(=O)NCc4ccn5ccnc5c4)cc3)C2)c1` (stereo not drawn) [Example 603, 4-[1-(3-cyanobenzoyl)pyrrolidin-3-yl]-N-(imidazo[1,2-a]pyridin-7-ylmethyl)benzamide] are 1030 nM, 1.01 nM and 695 nM.
